Measured values: patent US7268164B2, “Anti-epileptogenic agents” (Queens University at Kingston, priority 1997, dated 2007)
Where a name gives a salt, the structure may show the parent alone.

Assays:
[1] = solubility in saline; type: physicochemical
[2] = system: spontaneous recurrent seizures; assay: spontaneous recurrent seizures (SRS) model of epilepsy; type: in vivo, Sprague-Dawley rat; conditions: for effective in decreasing seizures by at least 50%: administered at Time 1 (Day 1, after status epilepticus, before onset of SRS); for effective in decreasing seizures by at least 50% / effective in decreasing seizures (seizure frequency) by at least 50%: 20 mg/kg/day i.v. for 10 days; for effective in decreasing seizures (seizure frequency) by at least 50%: administered at Time 2 (Day 30, established SRS)
Method: The “spontaneous recurrent seizures” (SRS) model of epilepsy was used to evaluate candidate compounds in a model for Phase 1 epileptogenesis (see, e.g., Mello, E. et al., Epilepsia (1993) 34:985; Cavalheiro, J. et al., Epilepsia (1991) 32:778). In the SRS model, an adult male Sprague-Dawley rat (c. 260 g) is given pilocarpine by injection (380 mg/kg i.p.). Within 25 minutes, the animal enters status epilepticus, which typically lasts for 15-20 hours (although about 10% of animals die at this stage). The rat is allowed to spontaneously recover and is given food and water ad lib. and maintained on a 12 hour/12 hour light/dusk cycle. Rats are usually studied in groups of four. Beginning on about day 13-15, the rats develop spontaneous recurrent seizures, which occur at the rate of about 4-5 per week. The rats are videotaped 24 hours per day, and the videotapes are reviewed for behavioral seizures (including head nodding, forelimb clonus, and rearing), which are counted. The animals are watched for three months, permitting evaluation of a sufficient number of seizures. […] Administration of the candidate compound at Time 1 permits evaluation for anti-epileptogenic properties (ability to prevent the onset of seizures); administration of compounds at Time 2 permits evaluation of drugs as anti-ictogenics with the ability to suppress established seizures.
As a reference, the standard anticonvulsant phenytoin was administered (20 mg/kg/day i.v. for 10 day) at either Time 1 or Time 2.

[3] = system: mice; assay: testing of dioxapiperazine compounds in mice (Example 7); type: in vivo; parameters: key to Activity: 300 mg/kg / Activity: 100 mg/kg / Activity: 30 mg/kg: 0 (inactive); 1: Activity on scale of 0 (inactive) to 4.; 2: Activity on scale of 0 (inactive) to 4.; 3: Activity on scale of 0 (inactive) to 4.; Activity on scale of 0 (inactive) to 4; conditions: for Activity: 100 mg/kg / Activity: 300 mg/kg / Activity: 30 mg/kg: mice, 30 minutes and four hours after administration; for anti-convulsive activity: animal model system of Table 4, in words
Method: (§1) Selected compounds were dissolved in 0.9% NaCl or suspended in a mixture of 30% polyethylene glycol 400 and 70% water, and tested in an animal model. Briefly, the compounds were administered intraperitoneally or or orally to carsworth Farms #1 mice (in a volume of 0.01 ml/g of body weight) or Sprague-Dawley rats (in a volume of 0.004 ml/g body weight). Times on peak effect and peak neurologic deficit were determined before the anticonvulsant tests were administered.
(§2) The maximal electroshock seizure test (MES), corneal electrodes primed with a drop of electrolyte solution (0.9% NaCl) were applied to the eyes of the animal and an electrical stimulus (50 mA for mice, 150 mA for rats; 60 Hz) was delivered for 0.2 second at the time of the peak effect of the test compound. The animals were restrained by hand and released at the moment of stimulation in order to permit observation of the seizure.
(§3) In the subcutaneous pentylenetetrazol threshold test (scMet), the convulsant dose (CD97) of pentylenetetrazol (85 mg/kg in rats) was injected at the time of peak effect of the test compound. The animals were isolated and observed for 30 minutes to see whether seizures occurred.
(§4) Acute anti-convulsant drug-induced toxicity in lab animals is usually characterized by some type of neurologic abnormality. In mice, these abnormalities can be detected by the rotorod ataxia test, which is somewhat less useful in rats. In the rotorod ataxia test, neurologic deficit is indicated by the inability of the animal to maintain equilibrium for at least one minute on a knurled rod rotating at 6 rpm. […] Inability to return the leg to normal position indicates a neurologi deficit.
Testing of the compounds was performed in 12 mice at doses of 30, 100, 300 mg/kg (4 mice each) 30 minutes and four hours after the test compounds was administered.

[4] = system: MES-induced seizure; pentylenetetrazol induced seizure; assay: biological activity per Example 6 (MES, scMet anticonvulsant tests); type: in vivo, carsworth Farms #1 mice or Sprague-Dawley rats; conditions: tested per Example 6
Method: as §1, §2, §3, §4

| Compound | Activity: 100 mg/kg [3] | Activity: 300 mg/kg [3] | other results |
| --- | --- | --- | --- |
| Cc1ccc(C(CC(=O)O)NCl)cc1 (stereo not shown) | – | – | solubility [1]: 7.2-7.1 (M, 4H)4.17-4.09(t, 1H, 7.4 Hz)2.39-2.46 (m, 2H)solubility: ~10 mg/mlsaline |
| O=C(O)CC(NCl)c1ccc(Cl)cc1 (stereo not shown) | – | – | solubility [1]: 7.3-7.17 (s, 4H)4.07-4.17 (t, 7H, 7.2 Hz)2.45-2.55 (dt, 4.5 Hz, 3.5Hz)solubility: ~10 mg/mlsaline |
| NC(CC(=O)O)c1ccccc1 (stereo not drawn) [Compound B5P91, β-Phenyl-β-alanine] | – | – | solubility [1]: 7.35-7.2 (s, 5H)4.45 (t, 1H, 7.3 Hz)2.8-2.1 (m, 2H)solubility: ~10 mg/mlsaline |
| CC(C)(C)C1CCC(C(CN)C(=O)O)CC1.Cl (stereo not drawn) [Compound B5P127, α-(4-tert-Butylcyclohexyl)-β-alanine Hydrochloride Salt] | – | – | effective in decreasing seizures by at least 50% [2]: 75%; effective in decreasing seizures (seizure frequency) by at least 50% [2]: 50% |
| CC1NC(=O)C(c2ccc(O)cc2)NC1=O [c/D-(p-OH)-Peg-L-Ala] | 0 | 0 | – |
| NCCCCC1NC(=O)C(c2ccc(O)cc2)NC1=O [c/D-(p-OH)-Peg-L-Lys] | 0 | 0 | – |
| NCCCCC1NC(=O)C(c2ccccc2)NC1=O [c/D-Peg-D-Lys] | 0 | 0 | – |
| CSCCC1NC(=O)C(c2ccccc2)NC1=O [c/D-Peg-D-Met] | 0 | 0 | – |
| NCCC[C@H]1NC(=O)[C@@H](c2ccccc2)NC1=O [c/D-Peg-D-Orn] | 0 | 0 | – |
| O=C1CNC(=O)[C@@H](c2ccccc2)N1 [c/D-Peg-Gly] | 1 | 2 | Activity: 30 mg/kg [3]: 0 |
| C[C@@H]1NC(=O)[C@@H](c2ccccc2)NC1=O [c/D-Peg-L-Ala, Cyclo-D-phenylglycine-L-alanine] | 3 | 4 | anti-convulsive activity [3]: strong anti-convulsive activity; Activity: 30 mg/kg [3]: 2 |
| N=C(N)NCCC[C@@H]1NC(=O)[C@@H](c2ccccc2)NC1=O [c/D-Peg-L-Arg] | 0 | 0 | – |
| NCCCCC1NC(=O)C(c2ccccc2)NC1=O [c/D-Peg-L-Lys] | 0 | 1 | – |
| CSCCC1NC(=O)C(c2ccccc2)NC1=O [c/D-Peg-L-Met] | 0 | 1 | – |
| NCCCC1NC(=O)C(c2ccccc2)NC1=O [c/D-Peg-L-Ornithine (Orn)] | 0 | 0 | – |
| NCCC1NC(=O)C(c2ccccc2)NC1=O [c/D-Peg-L-diaminobutyric acid] | 0 | 0 | – |
| C[C@@H]1NC(=O)[C@H](c2ccccc2)NC1=O [c/L-Peg-L-Ala] | 0 | 0 | – |
| CC(C)CC1NC(=O)C(C)NC1=O [c/L-alanine-D-leucine] | – | – | anti-convulsive activity [3]: active |
| O=C1NC(=O)C(c2ccccc2)(c2ccccc2)N1 [phenytoin] | – | – | preventing the onset of seizures ([2]; administered at Time 1, 20 mg/kg/day i.v. for 10 day): ineffective; effective in decreasing seizures (seizure frequency) by at least 50% [2]: 75% |
| COc1cc(C)c(C(N)CC(=O)O)cc1C (stereo not drawn) [β-2,5-dimethyl-4-methoxyphenyl-β-alanine] | – | – | biological activity [4]: at least weak activity |
| NC(CC(=O)O)c1cccc(C(F)(F)F)c1F (stereo not drawn) [β-2-fluoro-3-(trifluoromethyl)phenyl-β-alanine] | – | – | biological activity [4]: moderate |
| COc1cccc(C(N)CC(=O)O)c1O (stereo not drawn) [β-2-hydroxy-3-methoxyphenyl-β-alanine] | – | – | biological activity [4]: at least weak activity |
| COc1ccc(C(N)CC(=O)O)cc1C (stereo not drawn) [β-3-methyl-4-methoxyphenyl-β-alanine] | – | – | biological activity [4]: slight |
| NCCC(=O)O [β-alanine] | – | – | effective in decreasing seizures by at least 50% [2]: 75%; effective in decreasing seizures (seizure frequency) by at least 50% [2]: 50% |
| NC(CC(=O)O)c1ccc(OC(F)(F)F)cc1 (stereo not drawn) [β-p-(trifluoromethoxy)phenyl-β-alanine] | – | – | biological activity [4]: at least weak activity |
| Cc1ccc(C(N)CC(=O)O)cc1 (stereo not drawn) [β-p-methylphenyl-β-alanine hydrochloride] | – | – | biological activity [4]: at least weak activity |
| cyclo-D-phenylglycyl-(S-Me)-L-cysteine [c/D-Peg-L-(S-methyl)-L-cysteine] | 3 | 4 | anti-convulsive activity [3]: strong anti-convulsive activity; Activity: 30 mg/kg [3]: 2 |
